This passage reports IC50 results from patent publication US5834487A, “Inhibition of 26S and 20S proteasome by indanones” (CV Therapeutics, priority 1996, dated 1998).

SMILES strings stand for the structures. Where only a bound is given, the exact number is not on record here.

What is called IC50 is the point on the concentration scale where inhibition reaches its midpoint. A higher IC50 goes with lower potency.

The experiment addresses T1, 20S catalytic subunit of the proteasome (multicatalytic proteinase complex) (Bos taurus, UniProt Q32KL2).
T1 construct: was purified to homogeneity from bovine brain according to published methods; from tissue; host or cells: bovine brain
As to the kind of experiment: 20S proteasome chymotryptic activity, fluorogenic peptide cleavage. As to conditions: 50 μM succinyl-leu-leu-val-tyr-7-amino-4-methyl coumarin, 15 minutes at 37° C, pH7.5. It counts as biochemical, bovine. On the procedure: Compounds of this invention prepared according to the method of Example 1 were tested as follows. The 20S catalytic subunit of the proteasome (also known as the multicatalytic proteinase complex) was purified to homogeneity from bovine brain according to published methods (Wilk S. and Orlowski, M, 40 842 J. Neurochem (1983)). The chymotryptic activity of the complex is measured by the increase in fluorescence following cleavage of the substrate peptide succinyl-leucine-leucine-valine-tyrosine-7-amino-4-methyl coumarin. The standard in vitro assay consists of 2 μg 20S proteasome, 0.1-100 μg/ml proteasome inhibitor in 200 μl 50 mM HEPES, containing 0.1% sodium dodecyl sulphate, pH7.5. The proteolytic reaction is initiated by the addition of 50 μM fluorogenic peptide substrate and allowed to progress for 15 minutes at 37° C. The reaction is terminated by the addition of 100 μl of 100 mM acetate buffer, pH4.0. The rate of proteolysis is directly proportional to the amount of liberated aminomethylcoumarin which is measured by fluorescent spectroscopy (EX 370 nm, EM 430 nm).
In turn, `COc1ccc2c(c1)C(CC(=O)NC(CC(C)C)C(=O)NC(CC(C)C)C(=O)N1CCOCC1)CC2=O` (mixture of isomers) [Compound 174] yielded an IC50 greater than 10 µg/mL.

In turn, `COc1ccc2c(c1)C(CC(=O)NC(CC(C)C)C(N)=O)CC2=O` (mixture of isomers) [Compound 3] gave an IC50 greater than 10 µg/mL.

The molecule `COc1ccc2c(c1)C(CC(=O)NC(Cc1ccccc1)C(=O)NC(CC(C)C)C(N)=O)CC2=O` (mixture of isomers) [Compound 14] yielded a 50% inhibitory concentration (IC50) greater than 10 µg/mL.

Molecule `COc1ccc2c(c1)C(CC(=O)N1CCCC1)CC2=O` (stereo not shown) [Compound 64] yielded an IC50 greater than 10 µg/mL.

For `COc1ccc2c(c1)C(CC(=O)NC(C(=O)NC(CC(C)C)C(=O)NCC(N)=O)C(C)C)CC2=O` (mixture of isomers) [Compound 47], the half-inhibitory concentration (IC50) is greater than 10 µg/mL.

`COc1ccc2c(c1)C(CC(=O)N[C@@H](CC(C)C)C(=O)N[C@H](Cc1ccccc1)C(=O)NCC(N)=O)CC2=O` (stereo partly shown) [Compound 88]: the IC50 is greater than 10 µg/mL.

For the molecule `COc1ccc(NC(=O)CC2CC(=O)c3ccc(OC)cc32)cc1` (racemic) [Compound 162], the IC50 was greater than 50 µg/mL.

Molecule `COc1ccc2c(c1)C(CC(=O)NC(Cc1ccccc1)C(N)=O)CC2=O` (mixture of isomers) [Compound 24] showed an IC50 greater than 10 µg/mL.

In the case of `COc1ccc2c(c1)C(CC(=O)NC(CC(C)C)C(=O)N1CCCC1C(N)=O)CC2=O` (mixture of isomers) [Compound 54], the IC50 was greater than 10 µg/mL.

With `COc1ccc2c(c1)C(CC(=O)NC(CCCCN)C(=O)NC(CC(C)C)C(N)=O)CC2=O` (mixture of isomers) [Compound 100], the IC50 is greater than 10 µg/mL.

With `COc1ccc2c(c1)C(CC(=O)NC(CC(C)C)C(=O)NC(CC(C)C)C(=O)N1CCCCC1)CC2=O` (mixture of isomers) [Compound 175], the IC50 is greater than 10 µg/mL.

As to `COc1ccc2c(c1)C(CC(=O)N(C(C)C)C(C)C)CC2=O` (stereo not shown) [Compound 62], the IC50 is greater than 10 µg/mL.

As for `CCCCC(NC(=O)CC1CC(=O)c2ccc(OC)cc21)C(=O)NC(CC(C)C)C(=O)NCC(N)=O` (mixture of isomers) [Compound 43], the IC50 is greater than 10 µg/mL.

The molecule `COc1ccc2c(c1)C(CC(=O)NC(CC(C)C)C(=O)NC(CC(C)C)C(=O)NCC1CCCCC1)CC2=O` (mixture of isomers) [Compound 188] displayed an IC50 greater than 10 µg/mL.

The molecule `COc1ccc2c(c1)C(CC(=O)N1C(C)CCCC1C)CC2=O` (stereo not shown) [Compound 75] gave an IC50 greater than 10 µg/mL.

`COc1ccc2c(c1)C(CC(=O)NC(Cc1ccccc1)C(N)=O)CC2=O` (mixture of isomers) [Compound 12] had an IC50 greater than 10 µg/mL.

For the molecule `COc1ccc2c(c1)C(CC(=O)N(CCO)Cc1ccccc1)CC2=O` (racemic) [Compound 166], the IC50 was greater than 50 µg/mL.

Consider `CC(C)CC(NC(=O)CC1CC(=O)c2ccccc21)C(=O)NC(CC(C)C)C(=O)NCC(N)=O` (mixture of isomers) [Compound 159], for which the IC50 was greater than 10 µg/mL.

The molecule `COc1ccc2c(c1)C(CC(=O)N(C)CCO)CC2=O` (stereo not shown) [Compound 115] showed an IC50 greater than 10 µg/mL.

`COc1ccc2c(c1)C(CC(=O)NCCCc1ccccc1)CC2=O` (stereo not shown) [Compound 120] displayed an IC50 greater than 10 µg/mL.

In turn, `COc1ccc2c(c1)C(CC(=O)N1CCCC1C(N)=O)CC2=O` (mixture of isomers) [Compound 55] returned a 50% inhibitory concentration (IC50) greater than 10 µg/mL.

`COc1ccc2c(c1)C(CC(=O)Nc1ccc(I)cc1)CC2=O` (racemic) [Compound 152] yielded an IC50 greater than 10 µg/mL.

As for `COc1ccc2c(c1)C(CC(=O)NC1CCN(Cc3ccccc3)CC1)CC2=O` (stereo not shown) [Compound 110], the IC50 is greater than 10 µg/mL.

The molecule `COc1ccc2c(c1)C(CC(=O)N(CCC#N)Cc1cccnc1)CC2=O` (stereo not shown) [Compound 116] had an IC50 greater than 10 µg/mL.

In the case of `COc1ccc2c(c1)C(CC(=O)N1CCC(C)CC1)CC2=O` (stereo not shown) [Compound 108], the IC50 is greater than 10 µg/mL.

On to `CCCCC(NC(=O)CC1CC(=O)c2ccc(OC)cc21)C(=O)NC(CC(C)C)C(N)=O` (mixture of isomers) [Compound 15], for which the IC50 is greater than 10 µg/mL.

Take `COc1ccc2c(c1)C(CC(=O)N1CCCC1C(=O)NC(CC(C)C)C(=O)NCC(N)=O)CC2=O` (mixture of isomers) [Compound 49]: the IC50 was greater than 10 µg/mL.

Molecule `COc1ccc2c(c1)C(CC(=O)NC(CC(C)C)C(=O)NC(CC(C)C)C(=O)O)CC2=O` (mixture of isomers) [Compound 172] registered an IC50 greater than 10 µg/mL.

For `COc1ccc2c(c1)C(CC(=O)NC(C(=O)NC(CC(C)C)C(N)=O)C(C)C)CC2=O` (mixture of isomers) [Compound 30], the IC50 was greater than 10 µg/mL.

On to `COc1ccc2c(c1)C(CC(=O)N(C)C)CC2=O` (stereo not shown) [Compound 78], for which the IC50 was greater than 10 µg/mL.

On to `COc1ccc2c(c1)C(CC(=O)NC(C)(C)CO)CC2=O` (stereo not shown) [Compound 113], for which the IC50 was greater than 10 µg/mL.

As to `COc1ccc2c(c1)C(CC(=O)NCc1ccccn1)CC2=O` (stereo not shown) [Compound 114], the IC50 is greater than 10 µg/mL.

`COc1ccc2c(c1)C(CC(=O)NC(Cc1ccccc1)C(=O)NC(CC(C)C)C(=O)NCC(N)=O)CC2=O` (mixture of isomers) [Compound 45] displayed an IC50 greater than 10 µg/mL.

Consider `COc1ccc2c(c1)C(CC(=O)NC(CC(C)C)C(=O)NC(CC(=O)O)C(N)=O)CC2=O` (mixture of isomers) [Compound 130], for which the IC50 is greater than 10 µg/mL.

Take `COc1ccc2c(c1)C(CC(=O)NC(CC(C)C)C(=O)NC(CC(C)C)C(=O)Nc1ccccc1)CC2=O` (mixture of isomers) [Compound 184]: the IC50 is greater than 10 µg/mL.

In turn, `CCCC(NC(=O)CC1CC(=O)c2ccc(OC)cc21)C(=O)NC(CC(C)C)C(N)=O` (mixture of isomers) [Compound 58] registered an IC50 greater than 10 µg/mL.

`COc1ccc2c(c1)C(CC(=O)NCc1ccccc1OC)CC2=O` (stereo not shown) [Compound 107] displayed an IC50 greater than 10 µg/mL.

Turning to `COc1ccc2c(c1)C(CC(=O)N1CCOCC1)CC2=O` (stereo not shown) [Compound 63], the IC50 was greater than 10 µg/mL.

`COc1ccc2c(c1)C(CC(=O)N[C@@H](CC(C)C)C(=O)N[C@@H](C(=O)NCC(N)=O)C(C)C)CC2=O` (stereo partly shown) [Compound 90] had an IC50 greater than 10 µg/mL.

`COc1ccc2c(c1)C(CC(=O)N1Cc3ccccc3CC1C(N)=O)CC2=O` (mixture of isomers) [Compound 25] came in with an IC50 greater than 10 µg/mL.

As to `COc1ccc2c(c1)C(CC(=O)NC(CC(C)C)C(=O)NC(Cc1ccccc1)C(N)=O)CC2=O` (mixture of isomers) [Compound 56], the half-maximal inhibitory concentration (IC50) is greater than 10 µg/mL.

Molecule `COc1ccc2c(c1)C(CC(=O)NCCCc1ccccc1)CC2=O` (stereo not shown) [Compound 66] showed a 50% inhibitory concentration (IC50) greater than 10 µg/mL.

`COc1ccc2c(c1)C(CC(=O)Nc1ccccc1)CC2=O` (stereo not shown) [Compound 122]: the IC50 is greater than 10 µg/mL.

On to `COc1ccc2c(c1)C(CC(=O)NCC(O)CO)CC2=O` (stereo not shown) [Compound 111], for which the IC50 is greater than 10 µg/mL.

Consider `CCCCCCCNC(=O)CC1CC(=O)c2ccc(OC)cc21` (stereo not shown) [Compound 70], for which the IC50 was greater than 10 µg/mL.

`COc1ccc2c(c1)C(CC(=O)NC(CC(C)C)C(=O)NC(CC(C)C)C(N)=O)CC2=O` (mixture of isomers) [Compound 2] displayed an IC50 of 1 µg/mL.
